Reference: patent publication US9963462B2 (priority 2015, dated 2018)

What was measured:
[1] = target: SNAP-hSPR (sepiapterin reductase, SPR) (Homo sapiens, UniProt P35270); test: biochemical; assay type: binding; settings: terbium labelled SNAP-hSPR / SSZ labelled SNAP-EGFP; read-out: hTR-FRET IC50
[2] = test system: BH4 levels in SK-N-BE (2) cells; test: SKN-N-BE (2) cellular assay, BH4 levels by LC-MS; assay type: cell-based; settings: Homo sapiens, SKNBE2, read-out: SK-N-BE(2) IC50, SK-N-BE (2) cells, BH4 levels by LC-MS
[3] = test system: BH4 production in human peripheral blood mononuclear cells (PBMCs); test: hPBMC assay, inhibition of BH4 production by LC-MS (anti-CD3/anti-CD28 stimulated); assay type: cell-based; settings: PBMC, read-out: hPBMC IC50

Sequence of SNAP-hSPR (sepiapterin reductase, SPR) (P35270 whole entry): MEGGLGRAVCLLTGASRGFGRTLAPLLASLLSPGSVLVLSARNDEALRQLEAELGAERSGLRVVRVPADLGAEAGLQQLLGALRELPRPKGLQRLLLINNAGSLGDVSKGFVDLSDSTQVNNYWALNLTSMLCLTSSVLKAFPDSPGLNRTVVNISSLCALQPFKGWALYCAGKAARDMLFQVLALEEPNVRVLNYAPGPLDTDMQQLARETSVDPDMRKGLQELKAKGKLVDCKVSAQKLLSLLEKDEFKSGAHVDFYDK

Row | Structure (SMILES) | IC50 [1] | IC50 [2] | IC50 [3]
1 | Cc1c(C(=O)N2CCC(C(C)C#N)CC2)cnn1-c1nn2cccc2c(=O)[nH]1 (stereo not drawn) [Q-0849] | 1 nM | 300 nM | 44 nM
2 | Cc1c(C(=O)N2CC(N(C)C(=O)OC(C)(C)C)C2)cnn1-c1nn2cccc2c(=O)[nH]1 [Q-0850] | 1 nM | 300 nM | 74 nM
3 | Cc1c(C(=O)N2CC[C@H](N(C)C(=O)OC(C)(C)C)C2)cnn1-c1nn2cccc2c(=O)[nH]1 [Q-0851] | 2 nM | 500 nM | 130 nM
4 | Cc1c(C(=O)N2CC(C)(NC(=O)OC(C)(C)C)C2)cnn1-c1nn2cccc2c(=O)[nH]1 [Q-0867] | 2 nM | 400 nM | 70 nM
5 | Cc1c(C(=O)N2CCN(C(=O)OC(C)(C)C)C(C)C2)cnn1-c1nn2cccc2c(=O)[nH]1 (stereo not drawn) [Q-0887] | 1 nM | 200 nM | 57 nM
6 | Cc1c(C(=O)N2CCN(C(C)(C)C)CC2)cnn1-c1nn2cccc2c(=O)[nH]1 [Q-0888] | 5 nM | 400 nM | 240 nM
7 | Cc1c(C(=O)N2CC3(CN(CC(F)(F)F)C3)C2)cnn1-c1nn2cccc2c(=O)[nH]1 [Q-0891] | 4 nM | 900 nM | 240 nM
8 | Cc1c(C(=O)N2CCN(C(=O)OC(C)(C)C)C[C@H]2C)cnn1-c1nn2cccc2c(=O)[nH]1 [Q-0892] | 2 nM | 400 nM | 76 nM
9 | Cc1c(C(=O)N2C[C@@H]3CCC(F)(F)[C@@H]3C2)cnn1-c1nn2cccc2c(=O)[nH]1 [Q-0896] | 1 nM | 300 nM | 49 nM
10 | Cc1c(C(=O)N2CCN(C(=O)OC(C)(C)C)[C@H](C)C2)cnn1-c1nn2cccc2c(=O)[nH]1 [Q-0899] | 1 nM | 300 nM | 48 nM
11 | Cc1c(C(=O)N2CCN3CC(F)(F)C[C@H]3C2)cnn1-c1nn2cccc2c(=O)[nH]1 [Q-0906] | 3 nM | 800 nM | 190 nM
12 | Cc1c(C(=O)N2CCN(CC(F)(F)F)C(C)C2)cnn1-c1nn2cccc2c(=O)[nH]1 (stereo not drawn) [Q-0908] | 1 nM | 300 nM | 130 nM
13 | Cc1c(C(=O)N2C3CCC2CC(F)(F)C3)cnn1-c1nn2cccc2c(=O)[nH]1 [Q-0910] | 2 nM | 500 nM | 74 nM
14 | Cc1c(C(=O)N2CCC3(CC2)CC3C(=O)N2CCCC2)cnn1-c1nn2cccc2c(=O)[nH]1 (stereo not drawn) [Q-0911] | 2 nM | 400 nM | 110 nM
15 | Cc1c(C(=O)N2CCN(C(=O)OC(C)(C)C)C[C@@H]2C)cnn1-c1nn2cccc2c(=O)[nH]1 [Q-0915] | 2 nM | 500 nM | 92 nM
16 | Cc1c(C(=O)N2CCC3OCCCC3C2)cnn1-c1nn2cccc2c(=O)[nH]1 (stereo not drawn) [Q-0917] | 3 nM | 700 nM | 100 nM
17 | Cc1c(C(=O)N2CCN(CC#N)CC2)cnn1-c1nn2cccc2c(=O)[nH]1 [Q-0918] | 2 nM | 600 nM | 120 nM
18 | Cc1c(C(=O)N2CCC3(CC3)C2)cnn1-c1nn2cccc2c(=O)[nH]1 [Q-0921] | 2 nM | 400 nM | 47 nM
19 | Cc1c(C(=O)N2CCC3(CC2)CN(C(=O)OC(C)(C)C)C3)cnn1-c1nc2c(c(=O)[nH]1)CCC2 [Q-0924] | 2 nM | 200 nM | 51 nM
20 | Cc1c(C(=O)N2CCC(C(F)F)CC2)cnn1-c1nn2cccc2c(=O)[nH]1 [Q-0926] | 1 nM | 200 nM | 45 nM
21 | Cc1c(C(=O)N2CC3C(C2)C3(C)C)cnn1-c1nn2cccc2c(=O)[nH]1 (stereo not drawn) [Q-0927] | 1 nM | 200 nM | 81 nM
22 | Cc1c(C(=O)N2CCC3(CC2)CC3C(=O)N(C)C2CC2)cnn1-c1nn2cccc2c(=O)[nH]1 (stereo not drawn) [Q-0930] | 1 nM | 300 nM | 58 nM
23 | Cc1c(C(=O)N2CC(N3CCC(F)(F)C3)C2)cnn1-c1nc2c(c(=O)[nH]1)CCC2 [Q-0937] | 4 nM | 800 nM | 130 nM
24 | Cc1c(C(=O)N2CCC(n3cccc3)CC2)cnn1-c1nn2cccc2c(=O)[nH]1 [Q-0941] | 1 nM | 300 nM | 13 nM
25 | Cc1c(C(=O)N2CCC(C3(C(F)(F)F)CC3)CC2)cnn1-c1nc2c(c(=O)[nH]1)CCC2 [Q-0943] | 2 nM | 18 nM | 38 nM
26 | Cc1c(C(=O)N2CCC(C3(C(F)(F)F)CC3)CC2)cnn1-c1nn2cccc2c(=O)[nH]1 [Q-0944] | 1 nM | 28 nM | 36 nM
27 | Cc1c(C(=O)N2CCC(C3(C#N)CC3)CC2)cnn1-c1nc2c(c(=O)[nH]1)CCC2 [Q-0948] | 1 nM | 100 nM | 53 nM
28 | Cc1c(C(=O)N2CC3(CCN(CC(F)(F)F)CC3)C2)cnn1-c1nn2cccc2c(=O)[nH]1 [Q-0951] | 2 nM | 400 nM | 45 nM
